Assay results: US8940742B2, “Heterocyclic compounds and uses thereof” (Infinity Pharmaceuticals, Inc., priority 2012, dated 2015)

The molecules below were run against T1, PI3K α (Homo sapiens, UniProt P42336) (assay: PI3-Kinase Promega ADP-Glo Max assay). Conditions: 20 nM kinase, 3 mM ATP, 500 uM diC8-PtdInsP.
T1 construct: purchased Millipore
Type: biochemical
Method in brief: (§1)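 Human class I PI3K (20 nM α or δ, 40 nM β) pre-incubated 15 min with compound in HEPES pH 7.4 buffer with MgCl2, then reacted 2 h at room temperature with 3 mM ATP and 500 uM diC8-PtdInsP. ADP measured by ADP-Glo Max luminescence; % inhibition fitted to 4-parameter logistic for IC50.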

Row | Structure (SMILES) | IC50 [nM]
1 | COc1cc(-c2cccc3cc([C@H](C)NC(=O)c4ncc(C)nc4N)n(-c4ccccc4)c(=O)c23)ccn1 [Compound 139] | > 10000
2 | C[C@H](NC(=O)c1c(N)nn2cccnc12)c1cc2cccc(Cl)c2c(=O)n1CCN(C)C [Compound 242] | > 10000
3 | COc1ccc(-c2cnc(N)c(C(=O)N[C@@H](C)c3cc4cccc(Cl)c4c(=O)n3-c3ccccc3)n2)cc1OC [Compound 93] | 1000 to 10000
4 | C[C@H](NC(=O)c1nc(-c2cccc(NS(C)(=O)=O)c2)cnc1N)c1cc2cccc(Cl)c2c(=O)n1C1CC1 [Compound 171] | 1000 to 10000

Further lines, results first:

Row | IC50 [nM] | Structure (SMILES)
5 | 1000 to 10000 | CC(C)n1c([C@H](C)NC(=O)c2c(N)nn3cccnc23)cc2cccc(Cl)c2c1=O [Compound 73]
6 | 1000 to 10000 | C=CC(=O)NCC#Cc1cccc2cc([C@H](C)NC(=O)c3c(N)nn4cccnc34)n(-c3ccccc3)c(=O)c12 [Compound 155]
7 | 1000 to 10000 | Cc1c([C@H](C)NC(=O)c2c(N)nn3cccnc23)n(-c2ccccc2)c(=O)c2c(F)cccc12 [Compound 260]

The molecules below were run against T2, PI3K β (Homo sapiens, UniProt P42338) (assay: PI3-Kinase Promega ADP-Glo Max assay). Conditions: 40 nM kinase, 3 mM ATP, 500 uM diC8-PtdInsP.
T2 construct: purchased Millipore
T2 sequence (P42338 whole entry): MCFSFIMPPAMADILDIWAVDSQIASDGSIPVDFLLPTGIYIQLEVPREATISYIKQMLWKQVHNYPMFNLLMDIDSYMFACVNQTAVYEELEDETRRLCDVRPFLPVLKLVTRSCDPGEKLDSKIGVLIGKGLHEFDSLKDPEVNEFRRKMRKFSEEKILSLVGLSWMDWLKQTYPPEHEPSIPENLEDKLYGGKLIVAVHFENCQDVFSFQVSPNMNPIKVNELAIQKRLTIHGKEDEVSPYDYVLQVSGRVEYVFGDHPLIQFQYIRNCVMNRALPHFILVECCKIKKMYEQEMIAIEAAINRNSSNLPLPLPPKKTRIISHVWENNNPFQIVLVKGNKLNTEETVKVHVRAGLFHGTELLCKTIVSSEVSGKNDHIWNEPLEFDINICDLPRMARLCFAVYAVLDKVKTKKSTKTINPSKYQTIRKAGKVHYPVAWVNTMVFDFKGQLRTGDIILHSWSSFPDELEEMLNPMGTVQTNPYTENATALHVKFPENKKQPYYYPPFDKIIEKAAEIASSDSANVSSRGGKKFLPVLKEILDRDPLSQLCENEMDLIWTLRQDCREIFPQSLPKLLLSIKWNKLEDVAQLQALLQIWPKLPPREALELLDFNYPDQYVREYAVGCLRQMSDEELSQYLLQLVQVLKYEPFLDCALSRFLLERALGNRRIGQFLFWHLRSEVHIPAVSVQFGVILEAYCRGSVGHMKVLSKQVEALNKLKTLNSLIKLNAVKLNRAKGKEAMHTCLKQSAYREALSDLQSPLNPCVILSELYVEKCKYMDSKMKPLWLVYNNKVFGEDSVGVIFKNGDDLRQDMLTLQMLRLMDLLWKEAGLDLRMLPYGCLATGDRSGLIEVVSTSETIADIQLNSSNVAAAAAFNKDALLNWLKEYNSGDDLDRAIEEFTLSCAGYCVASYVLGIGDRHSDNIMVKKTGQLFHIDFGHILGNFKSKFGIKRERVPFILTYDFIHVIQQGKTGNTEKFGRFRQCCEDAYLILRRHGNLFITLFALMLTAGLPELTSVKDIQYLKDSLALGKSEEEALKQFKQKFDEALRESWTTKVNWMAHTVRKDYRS
T2 sequence (P27986 whole entry partner): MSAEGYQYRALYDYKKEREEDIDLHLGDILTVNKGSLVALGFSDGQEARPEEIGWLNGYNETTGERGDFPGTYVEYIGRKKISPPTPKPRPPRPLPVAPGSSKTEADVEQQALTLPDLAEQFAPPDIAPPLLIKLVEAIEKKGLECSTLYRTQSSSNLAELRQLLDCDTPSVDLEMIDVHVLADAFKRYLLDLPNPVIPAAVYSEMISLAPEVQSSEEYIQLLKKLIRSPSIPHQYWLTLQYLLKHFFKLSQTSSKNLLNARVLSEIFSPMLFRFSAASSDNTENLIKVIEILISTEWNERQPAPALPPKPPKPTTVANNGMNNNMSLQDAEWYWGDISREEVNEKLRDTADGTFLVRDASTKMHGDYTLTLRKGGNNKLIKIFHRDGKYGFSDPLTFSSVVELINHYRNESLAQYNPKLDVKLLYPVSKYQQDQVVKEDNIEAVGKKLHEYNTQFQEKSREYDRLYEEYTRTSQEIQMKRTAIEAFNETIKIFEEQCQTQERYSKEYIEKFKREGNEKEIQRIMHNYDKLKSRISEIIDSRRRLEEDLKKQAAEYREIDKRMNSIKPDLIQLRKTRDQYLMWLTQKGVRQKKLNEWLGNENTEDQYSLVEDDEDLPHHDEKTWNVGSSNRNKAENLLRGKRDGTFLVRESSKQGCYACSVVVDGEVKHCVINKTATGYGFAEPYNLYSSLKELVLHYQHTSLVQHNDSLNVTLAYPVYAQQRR
Type: biochemical
Method in brief: as §1

Row | Structure (SMILES) | IC50 [nM]
8 | COc1cc(-c2cccc3cc([C@H](C)NC(=O)c4ncc(C)nc4N)n(-c4ccccc4)c(=O)c23)ccn1 [Compound 139] | > 10000
9 | C[C@H](NC(=O)c1c(N)nn2cccnc12)c1cc2cccc(Cl)c2c(=O)n1CCN(C)C [Compound 242] | < 100
10 | COc1ccc(-c2cnc(N)c(C(=O)N[C@@H](C)c3cc4cccc(Cl)c4c(=O)n3-c3ccccc3)n2)cc1OC [Compound 93] | 1000 to 10000
11 | C[C@H](NC(=O)c1nc(-c2cccc(NS(C)(=O)=O)c2)cnc1N)c1cc2cccc(Cl)c2c(=O)n1C1CC1 [Compound 171] | 100 to 1000

Next, values leading:

Row | IC50 [nM] | Structure (SMILES)
12 | 100 to 1000 | CC(C)n1c([C@H](C)NC(=O)c2c(N)nn3cccnc23)cc2cccc(Cl)c2c1=O [Compound 73]
13 | 1000 to 10000 | C=CC(=O)NCC#Cc1cccc2cc([C@H](C)NC(=O)c3c(N)nn4cccnc34)n(-c3ccccc3)c(=O)c12 [Compound 155]
14 | 100 to 1000 | Cc1c([C@H](C)NC(=O)c2c(N)nn3cccnc23)n(-c2ccccc2)c(=O)c2c(F)cccc12 [Compound 260]

Each molecule was assayed against T3, PI3K δ (Homo sapiens, UniProt O00329) (assay: PI3-Kinase Promega ADP-Glo Max assay). Conditions: 20 nM kinase, 3 mM ATP, 500 uM diC8-PtdInsP.
T3 construct: purchased Millipore
T3 sequence (O00329 whole entry): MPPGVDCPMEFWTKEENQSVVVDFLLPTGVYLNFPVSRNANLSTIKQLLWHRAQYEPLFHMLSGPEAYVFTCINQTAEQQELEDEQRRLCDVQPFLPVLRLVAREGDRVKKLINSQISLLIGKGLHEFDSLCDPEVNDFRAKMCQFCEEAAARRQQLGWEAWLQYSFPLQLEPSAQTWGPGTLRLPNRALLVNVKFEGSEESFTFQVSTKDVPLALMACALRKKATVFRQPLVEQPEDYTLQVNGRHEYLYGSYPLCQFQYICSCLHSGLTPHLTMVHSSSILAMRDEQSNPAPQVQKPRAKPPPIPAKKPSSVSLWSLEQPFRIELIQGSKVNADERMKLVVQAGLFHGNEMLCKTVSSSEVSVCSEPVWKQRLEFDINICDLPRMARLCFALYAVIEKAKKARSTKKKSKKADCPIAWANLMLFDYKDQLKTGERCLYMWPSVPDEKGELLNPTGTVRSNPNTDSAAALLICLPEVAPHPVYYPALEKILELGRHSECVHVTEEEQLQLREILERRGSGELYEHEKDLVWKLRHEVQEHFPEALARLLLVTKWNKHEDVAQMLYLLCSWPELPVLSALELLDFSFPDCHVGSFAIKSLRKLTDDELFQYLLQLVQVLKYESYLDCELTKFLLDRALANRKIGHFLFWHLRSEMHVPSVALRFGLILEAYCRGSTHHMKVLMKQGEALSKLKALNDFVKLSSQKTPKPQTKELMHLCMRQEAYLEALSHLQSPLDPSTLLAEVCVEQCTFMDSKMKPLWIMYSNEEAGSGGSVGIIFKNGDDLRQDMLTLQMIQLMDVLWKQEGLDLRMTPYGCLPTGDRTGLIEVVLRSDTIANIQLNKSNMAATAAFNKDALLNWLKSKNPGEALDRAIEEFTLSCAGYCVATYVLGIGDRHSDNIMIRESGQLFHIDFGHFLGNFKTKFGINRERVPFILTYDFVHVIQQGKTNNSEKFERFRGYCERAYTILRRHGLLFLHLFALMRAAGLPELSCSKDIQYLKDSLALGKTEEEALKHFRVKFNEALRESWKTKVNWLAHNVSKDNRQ
T3 sequence (P27986 whole entry partner): as the sequence (P27986 whole entry partner) above
Type: biochemical
Method in brief: as §1

Row | Structure (SMILES) | IC50 [nM]
15 | COc1cc(-c2cccc3cc([C@H](C)NC(=O)c4ncc(C)nc4N)n(-c4ccccc4)c(=O)c23)ccn1 [Compound 139] | 1000 to 10000
16 | C[C@H](NC(=O)c1c(N)nn2cccnc12)c1cc2cccc(Cl)c2c(=O)n1CCN(C)C [Compound 242] | < 100
17 | COc1ccc(-c2cnc(N)c(C(=O)N[C@@H](C)c3cc4cccc(Cl)c4c(=O)n3-c3ccccc3)n2)cc1OC [Compound 93] | 1000 to 10000
18 | C[C@H](NC(=O)c1nc(-c2cccc(NS(C)(=O)=O)c2)cnc1N)c1cc2cccc(Cl)c2c(=O)n1C1CC1 [Compound 171] | 1000 to 10000

Results, then the molecule that gave them:

Row | IC50 [nM] | Structure (SMILES)
19 | 1000 to 10000 | CC(C)n1c([C@H](C)NC(=O)c2c(N)nn3cccnc23)cc2cccc(Cl)c2c1=O [Compound 73]
20 | 100 to 1000 | C=CC(=O)NCC#Cc1cccc2cc([C@H](C)NC(=O)c3c(N)nn4cccnc34)n(-c3ccccc3)c(=O)c12 [Compound 155]
21 | 100 to 1000 | Cc1c([C@H](C)NC(=O)c2c(N)nn3cccnc23)n(-c2ccccc2)c(=O)c2c(F)cccc12 [Compound 260]

What follows are molecules tested against T4, PI3K γ (Homo sapiens, UniProt P48736) (assay: PI3-Kinase Promega ADP-Glo Max assay). Conditions: 40 nM kinase, 3 mM ATP, 500 uM diC8-PtdInsP.
T4 construct: purchased Millipore
Type: biochemical
Method in brief: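 Human class I PI3K reactions ran 2 hours at room temperature, followed by stop solution (40 min) and detection mix (1 hour) before luminescence reading.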

Row | Structure (SMILES) | IC50 [nM]
22 | COc1cc(-c2cccc3cc([C@H](C)NC(=O)c4ncc(C)nc4N)n(-c4ccccc4)c(=O)c23)ccn1 [Compound 139] | 1000 to 10000
23 | C[C@H](NC(=O)c1c(N)nn2cccnc12)c1cc2cccc(Cl)c2c(=O)n1CCN(C)C [Compound 242] | 1000 to 10000
24 | COc1ccc(-c2cnc(N)c(C(=O)N[C@@H](C)c3cc4cccc(Cl)c4c(=O)n3-c3ccccc3)n2)cc1OC [Compound 93] | 100 to 1000
25 | C[C@H](NC(=O)c1nc(-c2cccc(NS(C)(=O)=O)c2)cnc1N)c1cc2cccc(Cl)c2c(=O)n1C1CC1 [Compound 171] | < 100

The remaining lines, values ahead:

Row | IC50 [nM] | Structure (SMILES)
26 | 100 to 1000 | CC(C)n1c([C@H](C)NC(=O)c2c(N)nn3cccnc23)cc2cccc(Cl)c2c1=O [Compound 73]
27 | < 100 | C=CC(=O)NCC#Cc1cccc2cc([C@H](C)NC(=O)c3c(N)nn4cccnc34)n(-c3ccccc3)c(=O)c12 [Compound 155]
28 | < 100 | Cc1c([C@H](C)NC(=O)c2c(N)nn3cccnc23)n(-c2ccccc2)c(=O)c2c(F)cccc12 [Compound 260]

What follows are molecules tested against T5, Raw264.7 p110 γ (Mus musculus, UniProt Q9JHG7) (assay: Raw264.7 p110 γ cellular assay (phospho-AKT)). Conditions: serum-starved RAW264.7 cells stimulated with C5a.
T5 construct: reduction of phospho-AKT in stimulated RAW 264.7 cells; endogenous in cells; host or cells: RAW264.7 macrophages
T5 sequence (Q9JHG7 whole entry): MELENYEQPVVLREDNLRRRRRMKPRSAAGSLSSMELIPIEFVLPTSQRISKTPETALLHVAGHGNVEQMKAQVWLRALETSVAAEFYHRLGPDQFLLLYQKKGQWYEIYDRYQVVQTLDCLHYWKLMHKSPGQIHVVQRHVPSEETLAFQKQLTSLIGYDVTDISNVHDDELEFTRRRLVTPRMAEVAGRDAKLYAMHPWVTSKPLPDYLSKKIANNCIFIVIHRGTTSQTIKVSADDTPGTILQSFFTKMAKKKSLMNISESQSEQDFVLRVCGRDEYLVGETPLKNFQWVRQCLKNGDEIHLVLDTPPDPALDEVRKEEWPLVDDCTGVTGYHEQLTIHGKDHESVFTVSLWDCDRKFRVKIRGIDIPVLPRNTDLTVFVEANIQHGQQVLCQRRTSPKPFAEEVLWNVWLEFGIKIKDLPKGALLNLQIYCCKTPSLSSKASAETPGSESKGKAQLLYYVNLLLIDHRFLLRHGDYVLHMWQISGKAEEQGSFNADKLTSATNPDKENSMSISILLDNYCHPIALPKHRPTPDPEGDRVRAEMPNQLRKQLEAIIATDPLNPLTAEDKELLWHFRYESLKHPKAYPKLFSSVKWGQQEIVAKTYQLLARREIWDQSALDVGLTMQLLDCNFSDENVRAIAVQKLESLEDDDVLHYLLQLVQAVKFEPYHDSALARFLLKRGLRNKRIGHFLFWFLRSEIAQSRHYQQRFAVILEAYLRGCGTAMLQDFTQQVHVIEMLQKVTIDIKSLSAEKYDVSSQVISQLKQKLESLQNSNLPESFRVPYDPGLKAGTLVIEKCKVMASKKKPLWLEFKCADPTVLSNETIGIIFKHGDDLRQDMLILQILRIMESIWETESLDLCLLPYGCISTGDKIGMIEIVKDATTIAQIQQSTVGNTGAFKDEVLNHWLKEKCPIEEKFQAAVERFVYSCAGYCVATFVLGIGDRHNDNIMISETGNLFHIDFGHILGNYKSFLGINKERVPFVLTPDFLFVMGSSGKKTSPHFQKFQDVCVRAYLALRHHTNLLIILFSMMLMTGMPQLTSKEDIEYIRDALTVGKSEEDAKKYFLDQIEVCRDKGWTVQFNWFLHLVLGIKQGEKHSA
Type: cell-based
Source text: (b) PI3K-γ Selective Assay
Briefly, serum-starved PAW264.7 cells are stimulated with a known GPCR agonist C5a. […] Cells can be treated with test compounds prior to, simultaneously with, or subsequent to the stimulation by C5a. RAW 264.7 cells respond to the complement component fragment C5a through activation of the C5a receptor, and the C5a receptor activates macrophages and induces cell migration.

Row | Structure (SMILES) | IC50 [nM]
29 | COc1cc(-c2cccc3cc([C@H](C)NC(=O)c4ncc(C)nc4N)n(-c4ccccc4)c(=O)c23)ccn1 [Compound 139] | < 100
30 | C[C@H](NC(=O)c1c(N)nn2cccnc12)c1cc2cccc(Cl)c2c(=O)n1CCN(C)C [Compound 242] | 100 to 1000
31 | COc1ccc(-c2cnc(N)c(C(=O)N[C@@H](C)c3cc4cccc(Cl)c4c(=O)n3-c3ccccc3)n2)cc1OC [Compound 93] | < 100
32 | C[C@H](NC(=O)c1nc(-c2cccc(NS(C)(=O)=O)c2)cnc1N)c1cc2cccc(Cl)c2c(=O)n1C1CC1 [Compound 171] | < 100

Next, values leading:

Row | IC50 [nM] | Structure (SMILES)
33 | < 100 | CC(C)n1c([C@H](C)NC(=O)c2c(N)nn3cccnc23)cc2cccc(Cl)c2c1=O [Compound 73]
34 | < 100 | C=CC(=O)NCC#Cc1cccc2cc([C@H](C)NC(=O)c3c(N)nn4cccnc34)n(-c3ccccc3)c(=O)c12 [Compound 155]
35 | < 100 | Cc1c([C@H](C)NC(=O)c2c(N)nn3cccnc23)n(-c2ccccc2)c(=O)c2c(F)cccc12 [Compound 260]

These molecules were tested against RAJI p110 δ (Homo sapiens, UniProt O00329) (assay: RAJI p110 δ cellular assay (phospho-AKT)). Conditions: not given.
Sequence of RAJI p110 δ (O00329 whole entry): as the sequence (O00329 whole entry) above
Sequence of RAJI p110 δ (P27986 whole entry partner): as the sequence (P27986 whole entry partner) above

Row | Structure (SMILES) | IC50 [nM]
36 | COc1cc(-c2cccc3cc([C@H](C)NC(=O)c4ncc(C)nc4N)n(-c4ccccc4)c(=O)c23)ccn1 [Compound 139] | 100 to 1000
37 | C[C@H](NC(=O)c1c(N)nn2cccnc12)c1cc2cccc(Cl)c2c(=O)n1CCN(C)C [Compound 242] | < 100
38 | COc1ccc(-c2cnc(N)c(C(=O)N[C@@H](C)c3cc4cccc(Cl)c4c(=O)n3-c3ccccc3)n2)cc1OC [Compound 93] | 100 to 1000
39 | C[C@H](NC(=O)c1nc(-c2cccc(NS(C)(=O)=O)c2)cnc1N)c1cc2cccc(Cl)c2c(=O)n1C1CC1 [Compound 171] | < 100

The next lines start with the values.

Row | IC50 [nM] | Structure (SMILES)
40 | < 100 | CC(C)n1c([C@H](C)NC(=O)c2c(N)nn3cccnc23)cc2cccc(Cl)c2c1=O [Compound 73]
41 | < 100 | C=CC(=O)NCC#Cc1cccc2cc([C@H](C)NC(=O)c3c(N)nn4cccnc34)n(-c3ccccc3)c(=O)c12 [Compound 155]
42 | < 100 | Cc1c([C@H](C)NC(=O)c2c(N)nn3cccnc23)n(-c2ccccc2)c(=O)c2c(F)cccc12 [Compound 260]
